Measured values as given in patent EP1289507B1, “USE OF AN ALDOSTERONE ANTAGONIST FOR THE TREATMENT OR PROPHYLAXIS OF ALDOSTERONE-MEDIATED PATHOGENIC EFFECTS” (priority 2000, dated 2001).
Where “and” joins values, the source holds several entries; their conditions need not be identical. Identical values can stand only once. Entries after “also recorded” stand apart in the source; their conditions may differ. Like-named read-outs stand apart in the source and are kept apart here.

Experiments:
[1] = test system: aldosterone/salt uninephrectomized rats; test: Myocardial injury in aldosterone/salt uninephrectomized rats; format: in vivo, Sprague Dawley rats; conditions: eplerenone 100 mg/k/d in chow; aldosterone 0.75ug/hr, 1% NaCl
Protocol: Sprague Dawley rats (250 g) were uninephrectomized and provided with 1% NaCl-solution as the only source of water. The rats were then implanted with Alzet mini pump that subcutaneously delivered either aldosterone (0.75ug/hr) or vehicle. […] Blood pressure was measured by radio telemetry units implanted in abdominal aorta. Rats were sacrificed for examination of the hearts.

[2] = Form H content of dried solids by X-ray powder diffraction (XPRD); format: physicochemical
saline-drinking SHRSP = test: Stroke and cerebrovascular damage in saline-drinking SHRSP; format: in vivo, rats; conditions: 100 mg/kg/day
From the text: Fifteen male, 9 weeks of age, saline-drinking SHRSP were included in the experiment.

[3] = test system: captopril-treated, saline-drinking SHRSP; test: Protocol 2: Angiotensin II-induced renal damage in captopril-treated saline-drinking SHRSP; format: in vivo, male SHRSP/A3N
Protocol: Animals. Studies were conducted in accordance with institutional guidelines using male SHRSP/A3N (generations F-75 to F-78), n = 37, from our local colony. These animals were bred from NIH stock, derived from the SHRSP/A3N substrain described originally by Okamoto and coworkers (Okamoto K et al. Circ. Res. 34 and 35 (suppl I):I-143-I-153.). All animals were housed in a room maintained on a 12:12-h light:dark-cycle and an ambient temperature of 22 ± 1°C in the Animal Care Facility at New York Medical College. Rats were weaned at 4 weeks of age and allowed free access to Purina Lab Chow 5001 (Ralston Purina, St. Louis, MO) and tap water until the initiation of experimental protocols.
SHRSP were placed on Stroke-Prone Rodent Diet (#39-288, Zeigler Bros Inc., Gardners, PA) and 1% NaCl drinking solution ad libitum starting at 8.3 weeks of age. […] Animals were handled and weighed daily. Urine samples were collected for the assessment of proteinuria. Systolic blood pressure and heart rate were measured each week. After 2 weeks of treatment, animals were decapitated, trunk blood was collected into chilled EDTA tubes, and the kidneys were removed, blotted dry, and immediately weighed. Coronal sections of kidney were fixed and later processed for light microscopic evaluation.
Assays and Analyses. Systolic blood pressure and heart rate of awake animals were measured by tail-cuff plethysmography using a Natsume KN-210 manometer and tachometer (Peninsula Laboratories Inc., Belmont, CA). Rats were warmed at 37°C for 10 min and allowed to rest quietly in a Lucite chamber before measurement of blood pressure. Measurements of urine volume were made gravimetrically. Urinary protein concentration was determined by the sulfosalicylic acid turbidity method. Plasma aldosterone was measured by radioimmunoassay using ^125I-aldosterone as a tracer (Coat-a Count Aldosterone, Diagnostic Products Co., Los Angeles, CA).
Histology. Kidneys were preserved in 10% phosphate-buffered formalin. Coronal sections (2-3 µm) were stained with hematoxylin and eosin and examined by light microscopy in a blinded fashion as previously described (Stier CT et al. J Pharmacol Exp Ther (1992) 260:1410-1415). Glomerular damage was categorized as ischemic or thrombotic. Ischemic lesions were defined as retraction of glomerular capillary tufts with or without appreciable mesangiolysis. Glomerular thrombotic lesions were defined as any one of a combination of the following: segmental to global fibrinoid necrosis, focal thrombosis of glomerular capillaries, swelling and proliferation of intracapillary (endothelial and mesangial) and/or extracapillary cells (crescents), and expansion of reticulated mesangial matrix with or without significant hypercellularity. […] Vascular thrombotic lesions were defined as any one or a combination of the following: mural fibrinoid necrosis, extravasation and fragmentation of red blood cells, and luminal and/or mural thrombosis. Proliferative arteriopathy was characterized by proliferation of markedly swollen myointimal cells with swollen round to ovoid vesicular nuclei surrounded by mucinous extracellular matrix ("onion skinning") often resulting in nodular thickening. Vascular damage was expressed as the number of arteries and arterioles with lesions per 100 glomeruli. The presence of casts and tubular (ischemic) retraction and simplification was assessed semiquantitatively.
Statistical Analysis. Significant effects with respect to treatment and time were determined by two-way analysis of variance. Data with only one grouping variable were analyzed statistically by Student's unpaired t tests. When more than two groups were compared, one-way analysis of variance was performed followed by the post-hoc Newman-Keul's multiple comparison test. Data were analyzed using version 2.01 of the GraphPad Prism statistical software package (GraphPad Software Inc., San Diego, CA). P < .05 was considered statistically significant. Data are reported as mean ± SEM.

[4] = Pharmacokinetics and tolerability in subjects with moderate hepatic impairment vs normal healthy subjects; format: in vivo, human subjects; conditions: for AUC(0-t): read-out: AUC (0-lqc), Least Squares Mean; for AUC(0-inf): read-out: AUC (0-∞), Least Squares Mean
[5] = test system: L-NAME/ANG-II-induced renal injury in rats; conditions: cited from earlier work
[6] = captopril plus vehicle, or captopril plus angiotensin II plus eplerenone
[7] = human, in vivo, 400 mg, Single Dose, Moderate Impairment
[8] = human, in vivo, 400 mg, Single Dose, Normal

Compound: COC(=O)[C@@H]1CC2=CC(=O)CC[C@]2(C)[C@@]23O[C@@H]2C[C@@]2(C)[C@@H](CC[C@@]24CCC(=O)O4)[C@H]13 [Eplerenone, Pregn-4-ene-7,21-dicarboxylic acid, 9,11-epoxy-17-hydroxy-3-oxo-, γ-lactone, methyl ester, (7α, 11α, 17β)-]
- histopathologic myocardial damage [1]: prevents the histopathologic damage; also recorded: prevents the aldosterone plus high sodium myocardial damage
- Weight Percent Form H (XPRD) ([2]; cooling rate (0) 1.5°C/min, cooling endpoint (0) 25°C, impurity level (0) 100.8% purity starting material (footnote as printed), replicate runs): <3% Weight Percent and 5 Weight Percent
- Weight Percent Form H (XPRD) ([2]; cooling rate (+) 3°C/min, cooling endpoint (-) 5°C, impurity level (+) 89.3% purity starting material): 9 Weight Percent
- proteinuria (saline-drinking SHRSP): 38 ± 18 mg/day
- severe hypertension (SBP) (saline-drinking SHRSP; Figure A-12): 237 ± 3 mmHg
- signs of stroke (saline-drinking SHRSP; n=7): no signs of stroke up to 18.5 weeks of age
- Glomerular damage, Ischemic ([3]; Captopril 50 mg/kg/d + vehicle, or CAP, Angiotensin II 25 ng/min + Eplerenone 100 mg/kg/d, 2 weeks): 3.0 ± 1.0 lesions/100 glomeruli
- Glomerular damage, Thrombotic ([3]; as Table A-8B, 2 weeks): 1.0 ± 0.3 lesions/100 glomeruli
- Glomerular damage, Total ([3]; as Table A-8B, 2 weeks): 3.0 ± 1.0 lesions/100 glomeruli
- Renal arteriopathy, Proliferative ([3]; as Table A-8B, 2 weeks): 0.1 ± 0.1 lesions/100 glomeruli
- Renal arteriopathy, Thrombotic ([3]; as Table A-8B, 2 weeks): 4.0 ± 1.0 lesions/100 glomeruli
- Renal arteriopathy, Total ([3]; as Table A-8B, 2 weeks): 4.0 ± 1.0 lesions/100 glomeruli
- renal damage ([3]; captopril plus angiotensin II plus eplerenone 100 mg/kg/d): 3 ± 1%
- Preterminal systolic blood pressure [3, 6]: 231 ± 5 mm Hg
- tubules with ischemic retraction and simplification [3, 6]: 2.5 ± 0.9%
- proteinuria (urinary protein excretion) ([3]; end of study (2 weeks), captopril 50 mg/kg/d plus vehicle, or captopril plus angiotensin II 25 ng/min plus eplerenone 100 mg/kg/d): 28 ± 5 mg/day
- AUC greater among subjects with moderate hepatic impairment than matched normal subjects ([4]; 400 mg, single dosing, b445 and b448 state it for single and multiple dose): 41-50%
- Ratio of Means AUC (0-24)/AUC0-co) ([4]; Moderate Hepatic Impairment): 0.95
- AUC (0-24), Ratio of Means Moderate/Normal ([4]; Multiple Dose): 1.456
- CL/F, Ratio of Means Moderate/Normal ([4]; Multiple Dose): 0.687
- Cmax, Ratio of Means Moderate/Normal ([4]; Multiple Dose): 1.037
- XU(0-48), Ratio of Means Moderate/Normal ([4]; Multiple Dose): 2.007
- XU(0-48), Least Squares Mean ([4]; Multiple Dose, Moderate Impairment): 14.9 mg
- XU(0-48), Least Squares Mean ([4]; Multiple Dose, Normal): 7.4 mg
- Ratio of Means AUC (0-24)/AUC0-co) ([4]; Normal): 1.02
- AUC (0-lqc), Ratio of Means Moderate/Normal ([4]; Single Dose): 1.413
- AUC (0-∞), Ratio of Means Moderate/Normal ([4]; Single Dose): 1.497
- CL/.F, Ratio of Means Moderate/Normal ([4]; Single Dose): 0.668
- Cmax, Ratio of Means Moderate/Normal ([4]; Single Dose): 0.894
- XU(0-48), Ratio of Means Moderate/Normal ([4]; Single Dose): 1.016
- XU(0-48), Least Squares Mean ([4]; Single Dose, Moderate Impairment): 7.9 mg
- XU(0-48), Least Squares Mean ([4]; Single Dose, Normal): 7.8 mg
- AUC higher in moderate impairment compared to matched normal subjects ([4]; following multiple dosing 400 mg QD): 46%
- AUC tau at 24 h ([4]; human, in vivo, 400 mg, Multiple Dose, Moderate Impairment, read-out: AUC (0-24), Least Squares Mean): 43800 ng·h/mL
- CL/F ([4]; human, in vivo, 400 mg, Multiple Dose, Moderate Impairment, read-out: CL/F, Least Squares Mean (converted)): 152 mL/min
- CL/F ([4]; human, in vivo, 400 mg, Multiple Dose, Moderate, read-out: CL/F, Mean (converted)): 149 mL/min
- AUC tau at 24 h ([4]; human, in vivo, 400 mg, Multiple Dose, Normal, read-out: AUC (0-24), Least Squares Mean): 30100 ng·h/mL
- CL/F ([4]; human, in vivo, 400 mg, Multiple Dose, Normal, read-out: CL/F, Least Squares Mean (converted)): 222 mL/min
- CL/F ([4]; human, in vivo, 400 mg, Multiple Dose, Normal, read-out: CL/F, Mean (converted)): 230 mL/min
- Tmax ([4]; human, in vivo, 400 mg, Multiple Dose, Normal, read-out: Tmax, Least Squares Mean): 2.1 h
- AUC(0-t) [4, 7]: 42800 ng·h/mL
- AUC(0-inf) [4, 7]: 43600 ng·h/mL
- CL/F ([4]; human, in vivo, 400 mg, Single Dose, Moderate Impairment, read-out: CL/.F, Least Squares Mean (converted)): 153 mL/min
- CL/F ([4]; human, in vivo, 400 mg, Single Dose, Moderate, read-out: CL/F, Mean (converted)): 175 mL/min
- AUC(0-t) [4, 8]: 30300 ng·h/mL
- AUC(0-inf) [4, 8]: 29100 ng·h/mL
- CL/F ([4]; human, in vivo, 400 mg, Single Dose, Normal, read-out: CL/.F, Least Squares Mean (converted)): 228 mL/min
- CL/F ([4]; human, in vivo, 400 mg, Single Dose, Normal, read-out: CL/F, Mean (converted)): 254 mL/min
- AUC tau at 24 h ([4]; human, in vivo, 400 mg, linear kinetics assessment, Moderate Hepatic Impairment, read-out: Multiple Dose AUC (0-24), Least Squares Mean): 47200 ng·h/mL
- AUC tau at 24 h ([4]; human, in vivo, 400 mg, linear kinetics assessment, Normal, read-out: Multiple Dose AUC (0-24), Least Squares Mean): 29300 ng·h/mL
- subjects with adverse events ([4]; subjects with moderate hepatic impairment): 44%
- subjects with adverse events ([4]; subjects with normal hepatic function): 35%
- L-NAME/ANG-II-induced renal injury [5]: prevents L-NAME/ANG-II-induced renal injury
